One experiment addresses P. aeruginosa LpxC (Pseudomonas aeruginosa (strain ATCC 15692 / DSM 22644 / CIP 104116 / JCM 14847 / LMG 12228 / 1C / PRS 101 / PAO1), UniProt P47205). The experiment is described as follows: biochemical. The note with it: 5 nM P. aeruginosa LpxC, 2.5 μM substrate, 1 hour at room temperature. Format: biochemical. The procedure:
(§1) Exemplary compounds from the above Examples were tested for ability to inhibit LpxC activity using an in vitro substrate deacetylation assay with ADDA™ analysis. Assay procedures and results are described below.
(§2) For ADDA™ analysis, an aliquot of assay sample was withdrawn from each well of the 384-well plate and applied to a Hypercarb cartridge (Optimize Technologies, USA) under conditions designed to retain analytes of interest. Analytes were eluted using 1:1:2 acetone:acetonitrile:water containing 5 mM ammonium acetate then analysed by triple-quadrupole mass spectrometry. Mass spectrometry was carried out using electrospray ionization in negative ion mode.
For IC50 determinations, peak areas of the substrate and product were compared to compute the proportion of substrate reacted by the LpxC enzyme at each compound concentration.

The subject of experiment [1] is P. aeruginosa PAO1 isogenic mutant deficient in MexA mediated efflux. The experiment in a line: broth microdilution minimum inhibition concentration assay. The experiment is classed as cell-based. To be noted: Pseudomonas aeruginosa, PAO1, read-out: P. aeruginosa KO MIC. The procedure: (§3) Exemplary compounds from the above Examples were tested to determine their minimum inhibitory concentration (MIC) for exemplary strains of Eschericia and Pseudomonas bacteria using broth microdilution methods. Assay procedures and results are described below.
(§4) Broth microdilution assays were conducted according to Clinical and Laboratory Standards Institute guidelines (CLSI, M07-A11: Clinical and Laboratory Standards Institute. Methods for Dilution Antimicrobial Susceptibility Tests for Bacteria that Grow Aerobically; Approved Standard—11th Edition. Wayne, PA: CLSI, 2018.). Briefly, a 0.5 McFarland standard suspension was made from bacterial isolates on non-selective, solid media. The inocula were adjusted to give a bacterial concentration of 1×10^6 CFU/mL. Serial doubling-dilutions of each compound were prepared in cation-adjusted Mueller-Hinton broth (Sigma-Aldrich) in 96-well microdilution plates. A 50 μL aliquot of the inoculum was added to each microdilution plate and, within 15 minutes, incubated at 37° C. in air for 16-20 h. […] The test was controlled by the determination of piperacillin MIC against both E. coli ATCC 25922 and P. aeruginosa ATCC 27853 and ensuring accordance with the ranges published in CLSI supplementary document M100 (CLSI, M100Ed29: Clinical and Laboratory Standards Institute. Performance Standards for Antimicrobial Susceptibility Testing, 29th Edition. Wayne, PA: CLSI, 2018.).
(§5) Multiple enterobacteriaceae strains were tested, including E. coli ATCC 25922 and K. pneumoniae ATCC 43816. WT E. coli BW25113 was tested with an isogenic mutant deficient in acrA mediated efflux by clean deletion. WT P. aeruginosa PAO1 was tested with an isogenic mutant deficient in MexA mediated efflux by clean deletion.
(§6) Experimental results are provided in Table 4, which provides MIC values for wild-type E. coli BW25113 (“E. coli WT MIC”), an isogenic mutant deficient in acrA mediated efflux by clean deletion (“E. coli KO MIC”), wild-type P. aeruginosa PAO1 (“P. aeruginosa WT MIC”), and an isogenic mutant deficient in MexA mediated efflux by clean deletion (“[…]”).

Experiment [2] has as its system wild-type P. aeruginosa PAO1. The description is as above. The experiment is classed as cell-based. To be noted: Pseudomonas aeruginosa. The procedure:
as §3, §4, §5, §6

In experiment [3] the test system is wild-type E. coli BW25113. The experiment is described as above. The experiment is classed as cell-based. To be noted: Escherichia coli; wild-type E. coli BW25113, 37° C. 16-20 h; read-out: E. coli WT MIC. The procedure:
as §3, §4, §5, §6

Experiment [4] concerns E. coli BW25113 isogenic mutant deficient in acrA mediated efflux. The experiment is described as above. The experiment is classed as cell-based. To be noted: Escherichia coli, BW25113, read-out: E. coli KO MIC. Here is the method:
as §3, §4, §5, §6

For the next experiment, the target named is E. coli LpxC (Escherichia coli (strain K12), UniProt P0A725). The experiment is described as follows: in vitro substrate deacetylation assay for inhibition of LpxC (ADDA analysis). To be noted: 5 nM E. coli LpxC, 2.5 μM substrate, 1 hour at room temperature. Format: biochemical. Here is the method:
as §1
Dilutions of test compound were pre-incubated with 5 nM P. aeruginosa or E. coli LpxC for 10 minutes at room temperature in 50 mM NaH2PO4, 500 mM sucrose, 0.2 mg/mL BSA, pH 7.2 and <1% DMSO. Reactions were initiated by the addition of 2× substrate (UDP-3-O—(R-3-hydroxydecanoyl)-N-acetylglucosamine, Carbosynth Ltd, UK, for P. aeruginosa LpxC and UDP-3-O—(R-3-hydroxymyristoyl)-N-acetylglucosamine, BOC Sciences, USA, for E. coli LpxC), in 50 mM NaH2PO4, 0.5 mg/mL BSA, pH 7.2, to a final concentration of 2.5 μM. Reactions proceeded for 1 hour at room temperature prior to quenching with and equal volume of 2% acetic acid.
as §2, with “mode. Daughter ion peaks representing detected substrate (P. aeruginosa: parent Q1 mass=775.8 amu, daughter Q3 mass=384.7 amu E. coli: parent Q1 mass=833.0 amu, daughter Q3 mass=385.0 amu, collision energy=analyte specific, dwell time=50 ms) were identified using a multiple-reaction monitoring protocol.” for “mode.”
Total activity (0% inhibition) was obtained from reactions containing no compound, and 100% inhibition is defined as reactions in the presence of 1 μM CHIR-090 (N-[(1S,2R)-2-hydroxy-1-[(hydroxyamino)carbonyl]propyl]-4-[2-[4-(4-morpholinylmethyl)phenyl]ethynyl]-benzamide). For IC50 determinations, peak areas of the substrate and product were compared to compute the proportion of substrate reacted by the LpxC enzyme at each compound concentration. The fractional activity was converted to percentage inhibition and plotted against compound concentration in ActivityBase™ and fit using a four-parameter logistic using non-linear regression to yield the IC50 value.

[5] abbreviates: PAO1, read-out: P. aeruginosa WT MIC.
[6] abbreviates: wild-type P. aeruginosa PAO1, 37° C. 16-20 h, read-out: P. aeruginosa WT MIC.

Drawing on US20250171400A1, “AZA-HETEROCYCLYL CARBOXAMIDE AND RELATED COMPOUNDS AND THEIR USE IN TREATING MEDICAL CONDITIONS” (X-BIOTIX THERAPEUTICS, INC., priority 2021, published 2025), this text covers IC50 and MIC for 14 molecules.

Molecules are shown by their SMILES. ≈ marks a conversion by molar mass, not a printed value. Like-named read-outs stand apart in the source and are kept apart here.

By IC50 is commonly meant the concentration that inhibits the measured activity by half. A high value points to a need for much substance. What is called MIC is the lowest concentration found to suppress growth.

Sequence of E. coli LpxC (P0A725 whole entry): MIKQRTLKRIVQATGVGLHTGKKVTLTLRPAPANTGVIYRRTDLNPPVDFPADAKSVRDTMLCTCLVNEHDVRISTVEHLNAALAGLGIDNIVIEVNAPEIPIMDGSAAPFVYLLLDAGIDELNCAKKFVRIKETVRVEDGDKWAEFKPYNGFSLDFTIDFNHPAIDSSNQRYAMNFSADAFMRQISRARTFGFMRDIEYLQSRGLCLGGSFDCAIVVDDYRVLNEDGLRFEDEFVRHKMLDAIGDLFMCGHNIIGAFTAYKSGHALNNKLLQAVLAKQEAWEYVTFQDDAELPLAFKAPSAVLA

For `CNCCC(=O)N1C[C@H](NC(=O)[C@@H]2C[C@H](F)CN2)C[C@@H]1C(=O)NCc1ccc(C#CC#CC2CC2)cc1` [Example 9Q], the figures for the IC50 against P. aeruginosa LpxC and against E. coli LpxC were 50 to 100 nM and 2500 to 10000 nM, respectively. For the same molecule, the MIC in experiment [1], in experiment [2] (setting [5]), in experiment [3] and in experiment [4] was over 100 µM throughout.

Regarding `CC(C)C(=O)N1C[C@H](NC(=O)[C@H]2NCC[C@H]2O)C[C@@H]1C(=O)NCc1ccc(C#Cc2ccc(CN3CCOCC3)cc2)cc1` [Example 9V], the IC50 against P. aeruginosa LpxC was 100 to 1000 nM; against E. coli LpxC, 2500 to 10000 nM. Moreover, the MIC in experiment [1], in experiment [2] (setting [5]), in experiment [3] and in experiment [4] was over 100 µM in each case.

On to `O=C(NC[C@H]1C[C@@H](NC(=O)[C@@H]2C[C@H](F)CN2)CN1C(=O)C1CC1)c1ccc(C#Cc2ccc(CN3CCOCC3)cc2)cc1` [Example 9AS], for which the 50% inhibitory concentration (IC50) at P. aeruginosa LpxC is under 50 nM; at E. coli LpxC, under 500 nM. The MIC in experiment [1] is under 20 µM; in experiment [2] (setting [6]) it was over 100 µM; in experiment [3], under 20 µM; in experiment [4] it was under 20 µM.

As to `O=C(O)CCN1C[C@H](NC(=O)[C@@H]2C[C@H](F)CN2)C[C@@H]1C(=O)NCc1ccc(C#CC#CC2CC2)cc1` [Example 9AO], the IC50 is 100 to 1000 nM on P. aeruginosa LpxC and 2500 to 10000 nM at E. coli LpxC. The MIC in experiment [1], in experiment [2] (setting [5]), in experiment [3] and in experiment [4] was over 100 µM in each case.

`CC(C)C(=O)N1C[C@H](NC(=O)[C@@H]2CC(F)(F)CN2)C[C@@H]1C(=O)NCc1ccc(C#CC#CC2CC2)cc1` [Example 9G]: the IC50 against P. aeruginosa LpxC lay within 50 to 100 nM; on E. coli LpxC, 500 to 2500 nM. Besides, the minimal inhibitory concentration (MIC) was 20 to 100 µM (≈ 10.2 to 51.1 µg/mL) in experiment [1], over 100 µM in experiment [2] (setting [5]), over 100 µM in experiment [3] and 20 to 100 µM (≈ 10.2 to 51.1 µg/mL) in experiment [4].

With `CC(C)C(=O)N1C[C@H](NC(=O)[C@H]2NCC[C@@H]2O)C[C@@H]1C(=O)NCc1ccc(C#Cc2ccc(CN3CCOCC3)cc2)cc1` [Example 9AA], the IC50 is under 50 nM against P. aeruginosa LpxC and 500 to 2500 nM against E. coli LpxC. The MIC was 20 to 100 µM (≈ 12 to 60.2 µg/mL) in experiment [1], over 100 µM in experiment [2] (setting [5]), over 100 µM in experiment [3] and over 100 µM in experiment [4].

For `Cc1cc(C#Cc2ccc(CN3CCOCC3)cc2)ccc1C(=O)NC[C@H]1C[C@@H](NC(=O)[C@@H]2C[C@H](F)CN2)CN1C(=O)C1CC1` [Example 7, (2S,4S)—N-((3R,5R)-1-(Cyclopropanecarbonyl)-5-((2-methyl-4-((4-(morpholinomethyl)phenyl)ethynyl)benzamido)methyl)pyrrolidin-3-yl)-4-fluoropyrrolidine-2-carboxamide], the IC50 is 50 to 100 nM at P. aeruginosa LpxC and under 500 nM on E. coli LpxC. Besides, the MIC in experiment [1] is under 20 µM; in experiment [2] (setting [5]) it was over 100 µM; in experiment [3] it was under 20 µM; in experiment [4], under 20 µM.

In the case of `COC(=O)N1C[C@H](NC(=O)[C@@H]2C[C@H](F)CN2)C[C@@H]1C(=O)NCc1ccc(C#CC#CC2CC2)cc1` [Example 9R], the IC50 is under 50 nM against P. aeruginosa LpxC and 500 to 2500 nM against E. coli LpxC. The MIC in experiment [1] was under 20 µM; in experiment [2] (setting [6]), over 100 µM; in experiment [3], over 100 µM; in experiment [4], under 20 µM.

As to `CC(C)C(=O)N1C[C@H](NC(=O)[C@@H]2C[C@H](O)CN2)C[C@@H]1C(=O)NCc1ccc(C#Cc2ccc(CN3CCOCC3)cc2)cc1` [Example 9T, (2R,4R)-4-((2S,4S)-4-Hydroxypyrrolidine-2-carboxamido)-1-isobutyryl-N-(4-((4-(morpholinomethyl)phenyl)ethynyl)benzyl)pyrrolidine-2-carboxamide], the IC50 against P. aeruginosa LpxC was in the range of 100 to 1000 nM; on E. coli LpxC, 2500 to 10000 nM. For the same molecule, the MIC in experiment [1], in experiment [2] (setting [5]), in experiment [3] and in experiment [4] was over 100 µM in each case.

On to `O=C(NC[C@H]1C[C@@H](NC(=O)[C@@H]2C[C@H](F)CN2)CN1C(=O)C1CC1)c1ccc(C#Cc2ccccc2)cc1` [Example 9AX], for which the IC50 on P. aeruginosa LpxC was under 50 nM; at E. coli LpxC, under 500 nM. Also, the MIC in experiment [1] is under 20 µM; in experiment [2] (setting [6]), over 100 µM; in experiment [3], under 20 µM; in experiment [4], under 20 µM.

Turning to `NC1CN(C(=O)N2C[C@H](NC(=O)[C@@H]3C[C@H](F)CN3)C[C@@H]2C(=O)NCc2ccc(C#CC#CC3CC3)cc2)C1` [Example 9X], the concentration for half-maximal inhibition (IC50) on P. aeruginosa LpxC was under 50 nM; at E. coli LpxC it was 500 to 2500 nM. Also, the MIC was under 20 µM in experiment [1], over 100 µM in experiment [2] (setting [6]), over 100 µM in experiment [3] and 20 to 100 µM (≈ 10.4 to 52.1 µg/mL) in experiment [4].

For the molecule `CC(C)C(=O)N1C[C@H](NC(=O)[C@@H]2C[C@@H](F)CN2)C[C@@H]1C(=O)NCc1ccc(C#Cc2ccc(CN3CCOCC3)cc2)cc1` [Example 9H], the results for the IC50 against P. aeruginosa LpxC and on E. coli LpxC were 100 to 1000 nM and 2500 to 10000 nM, respectively. In addition, the minimal inhibitory concentration (MIC) in experiment [1], in experiment [2] (setting [5]), in experiment [3] and in experiment [4] was over 100 µM throughout.

With `CC(C)C(=O)N1C[C@H](NC(=O)[C@H]2NCC[C@H]2O)C[C@@H]1C(=O)NCc1ccc(C#CC#CC2CC2)cc1` [Example 9W, (2R,4R)—N-(4-(cyclopropylbuta-1,3-diyn-1-yl)benzyl)-4-((2S,3R)-3-hydroxypyrrolidine-2-carboxamido)-1-isobutyrylpyrrolidine-2-carboxamide], the concentration for half-maximal inhibition (IC50) against P. aeruginosa LpxC is 100 to 1000 nM; against E. coli LpxC, over 10000 nM. In addition, the MIC in experiment [1], in experiment [2] (setting [5]), in experiment [3] and in experiment [4] was over 100 µM in each case.

Consider `CC(C)C(=O)N1C[C@H](NC(=O)[C@@H]2CCCN2)C[C@@H]1C(=O)NCc1ccc(C#CC#CC2CC2)cc1` [Example 9L], for which the IC50 lay in the range of 100 to 1000 nM against P. aeruginosa LpxC and 500 to 2500 nM against E. coli LpxC. Also, the MIC in experiment [1] is 20 to 100 µM (≈ 9.49 to 47.5 µg/mL); in experiment [2] (setting [5]), over 100 µM; in experiment [3], over 100 µM; in experiment [4], 20 to 100 µM (≈ 9.49 to 47.5 µg/mL).
